Assay [1] in a line: Round table sweetness evaluation by test panelists (SEV determination against sucrose references). Particulars: samples made to equal sweet 10 SEV in neutral pH water, room temperature; references 4-14% sucrose. How it is done: Round table evaluations were performed with test panelists. Equal sweet 10 SEV concentrations in neutral pH water were made for allulose, AceK and fructose, as well as a composition comprising allulose, AceK and fructose. The components of the test compositions are described in the below tables. The mixed compositions were calculated using the Beidler mixture equation for the sweeteners. The Beidler mixture equation for sweeteners is as follows: […]
The concentration of each component in the mixture in ppm is divided by SEV (c/R) and is plotted against concentration, c. The slope of the linear regression is […]. The y-intercept of the linear regression multiplied by Rmax is the half-maximal sweetness concentration, 1/K. Rmax and 1/K are the two parameters used in the Beidler equation
The equal-molar mixture was tested against reference samples for the panelists to determine SEV values. […] The test samples were served in 2 ounce soufflé cups (approximately 60 ml) coded with 3-digit codes at room temperature. A two minute wait period between samples was enforced. Water and unsalted crackers was available for the panelists to clear their palates before and during testing. EyeQuestion was used for ballot development and recording of results. Results were collected in EyeQuestion for calculating approximate SEV level of each test sample.
The test products analyzed in this experiment are described below in Table 1.

The conditions of assay [2]: % of the sweetness of sucrose; cited from earlier work.

Consider `CC1=CC(=O)[N-]S(=O)(=O)O1.[K+]` [AceK, potassium salt of 6-methyl-1,2,3-oxathiazine-4(3H)-one 2,2-dioxide], for which, in assay [1], the “Mean sucrose equivalent value (SEV)” value turned out to be 9.286 and the “Median sucrose equivalent value (SEV)” value is reported as 8.

With `O=C(CO)C(O)C(O)C(O)CO` (stereo not shown) [Allulose, allulose], in assay [1], the “Mean sucrose equivalent value (SEV)” value is 10.14 and the “Median sucrose equivalent value (SEV)” value is 10. Moreover, in assay [2], the “Sweetness relative to sucrose” value is on record as “around 70%”.

Consider `O=C(CO)[C@@H](O)[C@H](O)[C@H](O)CO` [Fructose, fructose], for which, in assay [1], the “Mean sucrose equivalent value (SEV)” value was found to be 10.14 and the “Median sucrose equivalent value (SEV)” value was determined as 10.

The values are drawn from US20160050958A1, “IMPROVED SWEETENER” (TATE & LYLE INGREDIENTS AMERICAS LLC, priority 2013, published 2016).
